Experimental data: US10752609B2, “GSK-3 inhibitors” (priority 2016, dated 2020)
Like-named read-outs stand apart in the source and are kept apart here.

Key:
GSK3β = GSK3β (Homo sapiens, UniProt P49841); test: GSK3β kinase assay (Caliper LabChip3000 mobility shift, fluoresceinated peptide substrate); assay type: biochemical
pTau = pTau assay (no method described); assay type: cell-based
GSK3α = GSK3α (Homo sapiens, UniProt P49840); test: GSK3α kinase assay (Caliper LabChip3000 mobility shift, fluoresceinated peptide substrate)
GSK3α, sequence (P49840 whole entry, species assumed): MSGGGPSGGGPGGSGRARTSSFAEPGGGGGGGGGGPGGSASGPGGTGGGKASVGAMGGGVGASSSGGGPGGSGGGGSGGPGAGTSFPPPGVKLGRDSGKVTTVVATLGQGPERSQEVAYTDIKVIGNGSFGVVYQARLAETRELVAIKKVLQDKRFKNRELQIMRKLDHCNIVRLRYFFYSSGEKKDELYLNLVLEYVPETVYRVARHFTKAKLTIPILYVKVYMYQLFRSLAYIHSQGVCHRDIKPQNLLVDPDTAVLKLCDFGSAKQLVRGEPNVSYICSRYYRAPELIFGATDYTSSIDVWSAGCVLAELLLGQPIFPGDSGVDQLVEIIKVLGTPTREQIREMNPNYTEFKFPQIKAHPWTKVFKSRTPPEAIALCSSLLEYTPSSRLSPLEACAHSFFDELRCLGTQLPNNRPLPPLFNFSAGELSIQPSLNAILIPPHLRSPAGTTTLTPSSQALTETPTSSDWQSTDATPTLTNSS

[1] = 250 pM enzyme, 20 uM ATP, 1.5 uM peptide, 20 hours room temperature, first value of cell GSK3β/GSK3α, read-out: GSK3β (nM), IC50

GSK3β, sequence (P49841 whole entry, species assumed): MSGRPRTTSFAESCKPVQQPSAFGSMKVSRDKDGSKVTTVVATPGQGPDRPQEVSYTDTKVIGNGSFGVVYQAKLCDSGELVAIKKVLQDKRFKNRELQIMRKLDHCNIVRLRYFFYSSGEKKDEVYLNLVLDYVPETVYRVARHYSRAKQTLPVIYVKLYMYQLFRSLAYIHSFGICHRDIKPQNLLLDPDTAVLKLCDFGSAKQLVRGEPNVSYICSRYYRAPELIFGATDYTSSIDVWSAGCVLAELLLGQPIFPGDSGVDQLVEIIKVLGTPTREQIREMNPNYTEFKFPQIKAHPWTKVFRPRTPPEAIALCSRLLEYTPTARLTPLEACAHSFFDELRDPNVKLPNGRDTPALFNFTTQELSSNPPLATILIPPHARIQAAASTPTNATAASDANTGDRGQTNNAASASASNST

Question: Which results are given for `O=C(Nc1cncnc1NCC1CC1)c1ccnc(Nc2ccccc2)n1` [Example 79, N-(4-((Cyclopropylmethyl)amino)pyrimidin-5-yl)-2-(phenylamino)pyrimidine-4-carboxamide]?
Answer: IC50 (GSK3β; [1]): 160 nM; IC50 (pTau): 8000 nM; IC50 (GSK3α): 98 nM

Question: With `O=C(Nc1cnccc1C1CCOCC1)c1ccnc(Nc2ccc(OC(F)F)nc2)n1` [Example 80, 2-((6-(Difluoromethoxy)pyridin-3-yl)amino)-N-(4-(tetrahydro-2H-pyran-4-yl)pyridin-3-yl)pyrimidine-4-carboxamide] as the compound, how does the IC50 (GSK3β; [1]) read?
Answer: Its IC50 is 2.4 nM.

Question: And the IC50 (pTau)?
Answer: The IC50 was 86 nM.

Question: And the IC50 (GSK3α)?
Answer: Its IC50 is 0.65 nM.

Question: Which results are given for `O=C(Nc1cnccc1CN1CCCC1)c1ccnc(Nc2ccc(OC(F)F)nc2)n1` [Example 81, 2-((6-(Difluoromethoxy)pyridin-3-yl)amino)-N-(4-(pyrrolidin-1-ylmethyl)pyridin-3-yl)pyrimidine-4-carboxamide]?
Answer: IC50 (GSK3β; [1]): 9.8 nM; IC50 (pTau): 520 nM; IC50 (GSK3α): 6.6 nM

Question: `N#Cc1ccc(Nc2nccc(C(=O)Nc3cnccc3OCC(F)(F)F)n2)cn1` [Example 82, 2-((6-Cyanopyridin-3-yl)amino)-N-(4-(2,2,2-trifluoroethoxy)pyridin-3-yl)pyrimidine-4-carboxamide] was tested. Which IC50 (GSK3β; [1]) did it give?
Answer: Its IC50 is 0.18 nM.

Question: And the IC50 (pTau)?
Answer: Its IC50 is 2.8 nM.

Question: What about the IC50 (GSK3α) of the same compound?
Answer: Its IC50 is 0.09 nM.

Question: With `Cc1ccc(Nc2nccc(C(=O)Nc3cnccc3OCC(F)(F)F)n2)cn1` [Example 83, 2-((6-Methylpyridin-3-yl)amino)-N-(4-(2,2,2-trifluoroethoxy)pyridin-3-yl)pyrimidine-4-carboxamide] as the compound, how does the IC50 (GSK3β; [1]) read?
Answer: Its IC50 is 0.22 nM.

Question: What about the IC50 (pTau) of the same compound?
Answer: Its IC50 is 5.1 nM.

Question: What about the IC50 (GSK3α) of the same compound?
Answer: Its IC50 is 0.16 nM.

Question: For `O=C(Nc1cnccc1OCC(F)(F)F)c1ccnc(Nc2ccc(F)nc2)n1` [Example 84, 2-((6-Fluoropyridin-3-yl)amino)-N-(4-(2,2,2-trifluoroethoxy)pyridin-3-yl)pyrimidine-4-carboxamide], which IC50 (GSK3β; [1]) is on record?
Answer: Its IC50 is 0.24 nM.

Question: And the IC50 (pTau)?
Answer: The IC50 was 4.8 nM.

Question: And the IC50 (GSK3α)?
Answer: Its IC50 is 0.11 nM.

Question: For `O=C(Nc1cnccc1OCC(F)(F)F)c1ccnc(NC2CCCOC2)n1` (stereo not drawn) [Example 85, 2-((Tetrahydro-2H-pyran-3-yl)amino)-N-(4-(2,2,2-trifluoroethoxy)pyridin-3-yl)pyrimidine-4-carboxamide], which IC50 (GSK3β; [1]) is on record?
Answer: The IC50 was 0.51 nM.

Question: And the IC50 (pTau)?
Answer: The IC50 was 17 nM.

Question: And the IC50 (GSK3α)?
Answer: The IC50 was 0.41 nM.

Question: Which IC50 (GSK3β; [1]) does the source give for `O=C(Nc1cnccc1-c1ccccc1)c1ccnc(Nc2ccc(F)nc2)n1` [Example 86, 2-((6-Fluoropyridin-3-yl)amino)-N-(4-phenylpyridin-3-yl)pyrimidine-4-carboxamide] here?
Answer: Its IC50 is 0.8 nM.

Question: What about the IC50 (pTau) of the same compound?
Answer: The IC50 was 68 nM.

Question: And the IC50 (GSK3α)?
Answer: Its IC50 is 0.4 nM.

Question: For `CC(=O)Nc1ccc(Nc2nccc(C(=O)Nc3cnccc3-c3ccccc3)n2)cn1` [Example 87, 2-((6-Acetamidopyridin-3-yl)amino)-N-(4-phenylpyridin-3-yl)pyrimidine-4-carboxamide], which IC50 (GSK3β; [1]) is on record?
Answer: Its IC50 is 1.4 nM.

Question: And the IC50 (pTau)?
Answer: The IC50 was 150 nM.

Question: What about the IC50 (GSK3α) of the same compound?
Answer: Its IC50 is 0.92 nM.

Question: With `O=C(Nc1cnccc1-c1ccccc1)c1ccnc(NC2CCOCC2)n1` [Example 88, N-(4-Phenylpyridin-3-yl)-2-((tetrahydro-2H-pyran-4-yl)amino)pyrimidine-4-carboxamide] as the compound, how does the IC50 (GSK3β; [1]) read?
Answer: Its IC50 is 2.6 nM.

Question: What about the IC50 (pTau) of the same compound?
Answer: The IC50 was 150 nM.

Question: And the IC50 (GSK3α)?
Answer: The IC50 was 1.4 nM.

Question: Which IC50 (GSK3β; [1]) does the source give for `Cc1ccc(Nc2nccc(C(=O)Nc3cnccc3-c3ccccc3)n2)cn1` [Example 89, 2-((6-Methylpyridin-3-yl)amino)-N-(4-phenylpyridin-3-yl)pyrimidine-4-carboxamide] here?
Answer: Its IC50 is 3 nM.

Question: What about the IC50 (pTau) of the same compound?
Answer: The IC50 was 73 nM.

Question: And the IC50 (GSK3α)?
Answer: Its IC50 is 1.5 nM.

Question: Which IC50 (GSK3β) does the source give for `CCn1nccc1Nc1nccc(C(=O)Nc2cnccc2-c2ccccc2)n1` [Example 90, 2-((1-Ethyl-1H-pyrazol-5-yl)amino)-N-(4-phenylpyridin-3-yl)pyrimidine-4-carboxamide] here?
Answer: Its IC50 is 3 nM.

Question: And the IC50 (pTau)?
Answer: The IC50 was 120 nM.

Question: And the IC50 (GSK3α)?
Answer: The IC50 was 2.2 nM.

Question: Which results are given for `O=C(Nc1cnccc1-c1ccccc1)c1ccnc(Nc2cncc3c2CCCC3)n1` [Example 91, N-(4-Phenylpyridin-3-yl)-2-((5,6,7,8-tetrahydroisoquinolin-4-yl)amino)pyrimidine-4-carboxamide]?
Answer: IC50 (GSK3β; [1]): 3.5 nM; IC50 (pTau): 270 nM; IC50 (GSK3α): 2.3 nM

Question: How did the IC50 (GSK3β; [1]) turn out when `CCO[C@H]1COC[C@@H]1Nc1nccc(C(=O)Nc2cnccc2-c2ccccc2)n1` [Example 92, 2-(((3S,4R)-4-Ethoxytetrahydrofuran-3-yl)amino)-N-(4-phenylpyridin-3-yl)pyrimidine-4-carboxamide] was run?
Answer: Its IC50 is 3.8 nM.

Question: What about the IC50 (pTau) of the same compound?
Answer: Its IC50 is 250 nM.

Question: What about the IC50 (GSK3α) of the same compound?
Answer: Its IC50 is 2.2 nM.

Question: How did the IC50 (GSK3β; [1]) turn out when `CN(C)c1ccc(Nc2nccc(C(=O)Nc3cnccc3-c3ccccc3)n2)cn1` [Example 93, 2-((6-(Dimethylamino)pyridin-3-yl)amino)-N-(4-phenylpyridin-3-yl)pyrimidine-4-carboxamide] was run?
Answer: The IC50 was 4.3 nM.

Question: What about the IC50 (pTau) of the same compound?
Answer: The IC50 was 390 nM.

Question: And the IC50 (GSK3α)?
Answer: Its IC50 is 3.1 nM.

Question: Which results are given for `O=C(Nc1cnccc1-c1ccccc1)c1ccnc(NC2CCCOC2)n1` (stereo not drawn) [Example 94, N-(4-Phenylpyridin-3-yl)-2-((tetrahydro-2H-pyran-3-yl)amino)pyrimidine-4-carboxamide]?
Answer: IC50 (GSK3β; [1]): 5.1 nM; IC50 (pTau): 210 nM; IC50 (GSK3α): 3.5 nM

Question: Which IC50 (GSK3β; [1]) does the source give for `Cc1cc(Nc2nccc(C(=O)Nc3cnccc3-c3ccccc3)n2)sn1` [Example 95, 2-((3-Methylisothiazol-5-yl)amino)-N-(4-phenylpyridin-3-yl)pyrimidine-4-carboxamide] here?
Answer: Its IC50 is 5.7 nM.

Question: What about the IC50 (pTau) of the same compound?
Answer: Its IC50 is 78 nM.

Question: What about the IC50 (GSK3α) of the same compound?
Answer: The IC50 was 0.7 nM.

Question: Which results are given for `CN(C)CCOc1ccc(Nc2nccc(C(=O)Nc3cnccc3-c3ccccc3)n2)cn1` [Example 96, 2-((6-(2-(Dimethylamino)ethoxy)pyridin-3-yl)amino)-N-(4-phenylpyridin-3-yl)pyrimidine-4-carboxamide]?
Answer: IC50 (GSK3β; [1]): 18 nM; IC50 (pTau): 900 nM; IC50 (GSK3α): 11 nM

Question: How did the IC50 (GSK3β; [1]) turn out when `Cn1nc(C2CC2)cc1Nc1nccc(C(=O)Nc2cnccc2-c2ccccc2)n1` [Example 97, 2-((3-Cyclopropyl-1-methyl-1H-pyrazol-5-yl)amino)-N-(4-phenylpyridin-3-yl)pyrimidine-4-carboxamide] was run?
Answer: Its IC50 is 29 nM.

Question: And the IC50 (pTau)?
Answer: The IC50 was 870 nM.

Question: What about the IC50 (GSK3α) of the same compound?
Answer: The IC50 was 30 nM.

Question: For `Cn1ccc(Nc2nccc(C(=O)Nc3cnccc3-c3ccccc3)n2)n1` [Example 98, 2-((1-Methyl-1H-pyrazol-3-yl)amino)-N-(4-phenylpyridin-3-yl)pyrimidine-4-carboxamide], which IC50 (GSK3β; [1]) is on record?
Answer: The IC50 was 46 nM.

Question: What about the IC50 (pTau) of the same compound?
Answer: The IC50 was 2600 nM.

Question: And the IC50 (GSK3α)?
Answer: The IC50 was 37 nM.

Question: What does the source list for `Cn1cc(Nc2nccc(C(=O)Nc3cnccc3-c3ccccc3)n2)nn1` [Example 99, 2-((1-Methyl-1H-1,2,3-triazol-4-yl)amino)-N-(4-phenylpyridin-3-yl)pyrimidine-4-carboxamide]?
Answer: IC50 (GSK3β; [1]): 78 nM; IC50 (pTau): 10000 nM; IC50 (GSK3α): 190 nM

Question: What does the source list for `CC(C)CNc1ccc(Nc2nccc(C(=O)Nc3cnccc3-c3ccccc3)n2)cn1` [Example 100, 2-((6-(Isobutylamino)pyridin-3-yl)amino)-N-(4-phenylpyridin-3-yl)pyrimidine-4-carboxamide]?
Answer: IC50 (GSK3β; [1]): 93 nM; IC50 (pTau): 10000 nM; IC50 (GSK3α): 65 nM

Question: Which IC50 (GSK3β; [1]) does the source give for `O=C(Nc1cnccc1-c1ccccc1)c1ccnc(Nc2cnns2)n1` [Example 101, 2-((1,2,3-Thiadiazol-5-yl)amino)-N-(4-phenylpyridin-3-yl)pyrimidine-4-carboxamide] here?
Answer: Its IC50 is 100 nM.

Question: And the IC50 (pTau)?
Answer: Its IC50 is 9000 nM.

Question: And the IC50 (GSK3α)?
Answer: The IC50 was 42 nM.

Question: Which results are given for `Cn1cnc(Nc2nccc(C(=O)Nc3cnccc3-c3ccccc3)n2)c1` [Example 102, 2-((1-Methyl-1H-imidazol-4-yl)amino)-N-(4-phenylpyridin-3-yl)pyrimidine-4-carboxamide]?
Answer: IC50 (GSK3β; [1]): 260 nM; IC50 (pTau): 10000 nM; IC50 (GSK3α): 170 nM
